Reference: the supplement of paper PMC11061612

Key:
Experiment in all cases: combination Emax (second highest fraction inhibited in the dose matrix, 72 h); higher = more inhibition; extreme values may be limits of the assay
[1] = system: A673 (Ewing's Sarcoma)
Method in brief: (§1)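 Cell lines in DMEM/F12 or RPMI with 10% FBS were plated in 1536-well plates, held 24 hours at 37°C, 5% CO2, then given two-drug dose matrices for 72 hours (DMSO typically 0.2%). Viability was read by CellTiter-Glo 2.0 luminescence and scaled as inhibition from 0 (vehicle wells) to 1 (blank wells). Combination Emax is the second-highest inhibition in the matrix; Bliss excess is observed combination effect minus expected EA + EB − EA·EB, EA and EB being single-agent effects.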

[2] = system: BE-13 (T-Lymphoblastic Leukemia)
Method in brief: as §1

[3] = system: CAL-72 (Osteosarcoma)
Method in brief: as §1

[4] = system: ESS-1 (Other Solid Carcinomas)
Method in brief: as §1

[5] = system: EW-11 (Ewing's Sarcoma)
Method in brief: as §1

[6] = system: GAMG (Glioblastoma)
Method in brief: as §1

[7] = system: HH (T-Cell Non-Hodgkin's Lymphoma)
Method in brief: as §1

[8] = system: HuCCT1 (Biliary Tract Carcinoma)
Method in brief: as §1

[9] = system: KS-1 (Glioblastoma)
Method in brief: as §1

[10] = system: KYAE-1 (Esophageal Adenocarcinoma)
Method in brief: as §1

[11] = system: LNZTA3WT4 (Low Grade Glioma)
Method in brief: as §1

[12] = system: LOXIMVI (Melanoma)
Method in brief: as §1

[13] = system: MPP-89 (Mesothelioma)
Method in brief: as §1

[14] = system: NCI-H524 (Small Cell Lung Carcinoma)
Method in brief: as §1

[15] = system: OVCAR-5 (Ovarian Carcinoma)
Method in brief: as §1

[16] = system: SAS (Oral Cavity Carcinoma)
Method in brief: as §1

[17] = system: SNU-16 (Gastric Carcinoma)
Method in brief: as §1

[18] = system: SNU-449 (Hepatocellular Carcinoma)
Method in brief: as §1

[19] = system: SW1710 (Bladder Carcinoma)
Method in brief: as §1

[20] = system: TGBC1TKB (Biliary Tract Carcinoma)
Method in brief: as §1

[21] = system: WSU-NHL (B-Cell Non-Hodgkin's Lymphoma)
Method in brief: as §1

[22] = system: YAPC (Pancreatic Carcinoma)
Method in brief: as §1

Compound: CN(CCO)CC[C@H](CSc1ccccc1)Nc1ccc(S(=O)(=O)NC(=O)c2ccc(N3CCC([C@@H](O)c4ccccc4-c4ccc(Cl)cc4)CC3)cc2)cc1S(=O)(=O)C(F)(F)F [AZD4320] + Nc1ccn([C@@H]2O[C@H](CO)[C@@H](O)C2(F)F)c(=O)n1 [Gemcitabine] (first compound max 1 µM, 7x7, partner max 0.3 µM)
- combination Emax [1]: 0.995
- combination Emax [2]: 1
- combination Emax [3]: 0.854
- combination Emax [4]: 0.998
- combination Emax [5]: 0.92
- combination Emax [6]: 0.889
- combination Emax [7]: 0.293
- combination Emax [8]: 0.476
- combination Emax [9]: 0.304
- combination Emax [10]: 0.32
- combination Emax [11]: 0.608
- combination Emax [12]: 0.925
- combination Emax [13]: 0.78
- combination Emax [14]: 0.906
- combination Emax [15]: 0.633
- combination Emax [16]: 0.983
- combination Emax [17]: 0.934
- combination Emax [18]: 0.367
- combination Emax [19]: 0.51
- combination Emax [20]: 0.408
- combination Emax [21]: 0.995
- combination Emax [22]: 0.535
